This note sets out measurements from patent publication US5990179A, “Composition and method of enhancing electrotransport agent delivery” (ALZA Corporation, priority 1995, dated 1999).

Series [1] is described as follows: transdermal flux of lidocaine and epinephrine from gel formulations 14 and 15 (Example 3). The settings on record: formulation 14 (pH 3.68) vs 15 (pH 6.42); samples at 10, 30, 60 and 90 minutes.
Description: The formulation 14 and 15 gels were subjected to transdermal flux experiments using heat stripped chest and breast skin from human cadavers using the electrotransport permeation cell described in Example 2 and FIG. 3. Measurements were taken from the receptor compartment of the cell at 10 minutes, 30 minutes, 60 minutes, and 90 minutes after start of application of electrotransport current.
The nature of series [2]: pH of lidocaine donor solutions of varying base:salt ratio (Example 1). The class given is physicochemical.
Description: Two identical experiments were conducted at pHs 4.95 and 7.35, one at pH 6.85, and three at pH 6.25.

As to `CNC[C@H](O)c1ccc(O)c(O)c1` [epinephrine], the “transdermal flux, formulation 14 versus 15” value in series [1] is “did not have a significant statistical difference between formulation 14 and 15”.

Turning to `CCN(CC)CC(=O)Nc1c(C)cccc1C` [lidocaine], the pH in series [2] (0 mmoles lidocaine base, 199 mmoles lidocaine HCl) stood at 4.95; in series [2] (2.1 mmoles lidocaine base, 195 mmoles lidocaine HCl), 6.25; in series [2] (6.0 mmoles lidocaine base, 191 mmoles lidocaine HCl) it was 6.85; in series [2] (20.3 mmoles lidocaine base, 179 mmoles lidocaine HCl), 7.35.
